≈ marks a conversion by molar mass, not a printed value. Calls of active or inactive are those of the source. The calls are words filed in the database; no cut-off is given here.
What was measured:
[1] = tested on: Toxoplasma gondii; test: Antiparasitic activity against Toxoplasma gondii RH infected in mouse L929 cells assessed as [3H]uracil incorporation at 1 uM after 72 hrs by scintillation counting; format: functional
[2] = tested on: Plasmodium berghei; test: Antimalarial activity as parasitaemia against Plasmodium berghei ANKA infected Swiss albino mice (Mus musculus) at 100 uM/kg intraperitoneal dose after 3 days; format: functional
[3] = tested on: THP-1; test: Immunostimulatory activity in human THP1 cells assessed as LPS-induced NF-kappaB activation at =< 50 ug/mL by luciferase reporter gene assay; format: functional, cell-based
[4] = tested on: Plasmodium falciparum; test: Antimalarial activity against Plasmodium falciparum D6; format: functional, organism-based
[5] = tested on: Human immunodeficiency virus; test: Antiviral activity against Human immunodeficiency virus; format: functional, organism-based; details: Human immunodeficiency virus 1
[6] = tested on: Hepatitis B virus; test: Antiviral activity against Hepatitis B virus cell culture assay; format: functional, organism-based
[7] = tested on: Mycobacterium tuberculosis; test: Antitubercular activity against Mycobacterium tuberculosis; format: functional
[8] = tested on: Cryptococcus neoformans; test: Antifungal activity against Cryptococcus neoformans; format: functional, organism-based
[9] = tested on: Mycobacterium tuberculosis; test: Antitubercular activity against Mycobacterium tuberculosis at 6.25 ug/mL; format: functional
[10] = tested on: SK-MEL-28; test: Cytotoxicity against human SK-MEL-28 cells by alamar blue assay; format: functional, cell-based
[11] = tested on: Plasmodium falciparum; test: Antimalarial activity against chloroquine-resistant Plasmodium falciparum W2; format: functional, organism-based
[12] = tested on: HT-29; test: Cytotoxicity against human HT-29 cells by alamar blue assay; format: functional, cell-based
[13] = tested on: Staphylococcus aureus; test: Antibacterial activity against Staphylococcus aureus; format: functional, organism-based
[14] = tested on: Mycobacterium intracellulare; test: Antibacterial activity against Mycobacterium intracellular; format: functional, organism-based
[15] = tested on: A549; test: Cytotoxicity against human A549 cells by alamar blue assay; format: functional, cell-based
[16] = tested on: Candida albicans; test: Antifungal activity against Candida albicans; format: functional, organism-based
[17] = tested on: Aspergillus fumigatus; test: Antifungal activity against Aspergillus fumigatus; format: functional, organism-based
[18] = tested on: Staphylococcus aureus; test: Antibacterial activity against methicillin-resistant Staphylococcus aureus; format: functional, organism-based
[19] = tested on: Pseudomonas aeruginosa; test: Antibacterial activity against Pseudomonas aeruginosa; format: functional, organism-based
[20] = tested on: Plasmodium berghei; test: Antimalarial activity against Plasmodium berghei ANKA infected Swiss albino mice (Mus musculus) intraperitoneal dose over 3 days; format: functional, organism-based
[21] = tested on: Plasmodium berghei; test: Antimalarial activity as increased survival against Plasmodium berghei ANKA infected Swiss albino mice (Mus musculus) at 100 uM/kg intraperitoneal dose; format: functional, organism-based
[22] = tested on: P388; test: Cytotoxicity against mouse P388 cells by alamar blue assay; format: functional, cell-based

O=C1C(O)=C([C@H]2CC[C@H](c3ccc(Cl)cc3)CC2)C(=O)c2ccccc21 [ATOVAQUONE]
inhibition at 1 µM [1]: 100%

CCN(CC)CCCC(C)Nc1ccnc2cc(Cl)ccc12 (stereo not given) [CHLOROQUINE]
Activity [2]: 0.1%

Cc1cc2c(cc1Br)[C@]1(C)CC[C@](C)(CO2)[C@@H]1C
Activity [3]: inactive

C[C@@H]1CC[C@H]2[C@@H](C)C(=O)O[C@@H]3O[C@@]4(C)CC[C@@H]1[C@]32OO4 [ARTEMISININ]
IC50 [4]: 0.012 µg/mL (≈ 0.0425 µM)
Activity [2]: 35.9%

Cc1cn([C@H]2C[C@H](N=[N+]=[N-])[C@@H](CO)O2)c(=O)[nH]c1=O [ZIDOVUDINE]
EC50 [5]: 0.004 µM

Nc1ccn([C@@H]2CS[C@H](CO)O2)c(=O)n1 [LAMIVUDINE]
EC50 [6]: 0.062 µg/mL (≈ 0.27 µM)

CO[C@H]1/C=C/O[C@@]2(C)Oc3c(C)c(O)c4c(O)c(c(/C=N/N5CCN(C)CC5)c(O)c4c3C2=O)NC(=O)/C(C)=C\C=C\[C@H](C)[C@H](O)[C@@H](C)[C@@H](O)[C@@H](C)[C@H](OC(C)=O)[C@@H]1C [RIFAMPIN]
MIC [7]: 0.25 µg/mL (≈ 0.304 µM)

CC/C=C/[C@H](CC)CCC[C@@]1(CC)C=C(CC)C(=O)O1 [PLAKORTONE G]
Activity [8]: inactive
inhibition at 6.25 µg/mL [9]: 4%
IC50 [10]: > 10 µg/mL
IC50 [11]: > 4.76 µg/mL
IC50 [12]: > 1 µg/mL
Activity [13]: inactive
IC50 [4]: 4.2 µg/mL (≈ 15.1 µM)
Activity [14]: inactive
IC50 [15]: > 1 µg/mL
Activity [16]: inactive
Activity [17]: inactive
Activity [18]: inactive
Activity [19]: inactive
EC50 [6]: > 100 µg/mL

CC/C=C/C(CC)CCC[C@@]1(CC)C[C@H](CC)[C@H](CC(=O)OC)OO1 (stereo not given in full) [PLAKORTIDE F]
IC50 [20]: Not Active
Activity [8]: inactive
Activity [21]: inactive
inhibition at 6.25 µg/mL [9]: 29%
IC50 [10]: 2.5 µg/mL (≈ 7.05 µM)
IC50 [22]: 1.25 µg/mL (≈ 3.53 µM)
IC50 [11]: 0.39 µg/mL (≈ 1.1 µM)
IC50 [12]: 1.25 µg/mL (≈ 3.53 µM)
inhibition at 1 µM [1]: 67%
Activity [13]: inactive
IC50 [4]: 0.48 µg/mL (≈ 1.35 µM)
EC50 [5]: 13 µM
Activity [14]: inactive
IC50 [15]: 2.5 µg/mL (≈ 7.05 µM)
Activity [16]: inactive
Activity [17]: inactive
Activity [2]: inactive
Activity [18]: inactive
Activity [19]: inactive
EC50 [6]: > 100 µg/mL

CC/C(=C(\c1ccccc1)c1ccc(OCCN(C)C)cc1)c1ccccc1 [TAMOXIFEN]
IC50 [10]: 1.86 µg/mL (≈ 5.01 µM)
IC50 [12]: 1.86 µg/mL (≈ 5.01 µM)
IC50 [15]: 1.86 µg/mL (≈ 5.01 µM)
